Results on two molecules are retold here after article PMC12814364 (Journal of the American Chemical Society, 2025).

“Also recorded” adds a separate entry of the source. Like-named read-outs stand apart in the source and are kept apart here.

Assay [1] has as its target T1, HBHA110–199 (Mycobacterium tuberculosis, UniProt P9WIP9). The assay can be described thus: ITC binding of HS hexadecasaccharides with HBHA110–199.
In assay [2] the target is T1, HBHA110–199. To be noted: cited from earlier work.
Assay [3] addresses T2, full-length HBHA (Mycobacterium tuberculosis, UniProt P9WIP9).
T2 sequence (P9WIP9 1-199): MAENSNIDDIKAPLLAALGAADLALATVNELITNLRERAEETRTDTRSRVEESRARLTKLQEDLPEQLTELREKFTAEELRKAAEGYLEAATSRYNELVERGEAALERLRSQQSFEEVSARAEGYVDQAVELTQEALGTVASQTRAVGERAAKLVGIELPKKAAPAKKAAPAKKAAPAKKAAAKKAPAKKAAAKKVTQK
The assay can be described thus: Far-UV circular dichroism of full-length HBHA with added sugar. To be noted: varying equivalents added; negative control. (In general: CD spectra are sensitive to the conformation of chiral molecules.)

On to `O=C(O)[C@@H]1O[C@@H](O[C@H]2[C@H](O)[C@@H](NS(=O)(=O)O)[C@@H](O[C@H]3[C@H](O)[C@@H](OS(=O)(=O)O)[C@H]4OC[C@@H]3O4)O[C@@H]2COS(=O)(=O)O)[C@H](OS(=O)(=O)O)[C@@H](O)[C@@H]1O[C@H]1O[C@H](COS(=O)(=O)O)[C@@H](O[C@@H]2O[C@@H](C(=O)O)[C@@H](O[C@H]3O[C@H](COS(=O)(=O)O)[C@@H](O[C@@H]4O[C@@H](C(=O)O)[C@@H](O[C@H]5O[C@H](COS(=O)(=O)O)[C@@H](O)[C@H](O)[C@H]5NS(=O)(=O)O)[C@H](O)[C@H]4OS(=O)(=O)O)[C@H](O)[C@H]3NS(=O)(=O)O)[C@H](O)[C@H]2OS(=O)(=O)O)[C@H](O)[C@H]1NS(=O)(=O)O` [HS8], for which the “n (sugar-to-protein binding ratio)” value in assay [1] (25 °C, Tris buffer pH 7.6) stood at 0.56 ± 0.01. In addition, the ΔG result in assay [1] (25 °C, Tris buffer pH 7.6) is recorded as “–7.68 ± 0.08 kcal/mol”. Moreover, in assay [1] (25 °C, Tris buffer pH 7.6), the ΔH is reported as 5.38 ± 0.05 kcal/mol. In assay [1] (25 °C, Tris buffer pH 7.6), the “–TΔS” value is on record as “–13.05 ± 0.07 kcal/mol”. Moreover, the Kd in assay [1] (Tris buffer pH 7.6, 25 °C, two trials, average ± standard deviation, read-out: dissociation constant, KD) is 2.4 ± 0.3 µM; in assay [2] (Average of Repeat I P(KKAA), residue 160-164, read-out: Dissociation constant from NMR cross-peak movement, average), 24.5 µM; in assay [2] (Average of Repeat II P(AKKAA), residue 165-170, read-out: Dissociation constant from NMR cross-peak movement, average), 11.8 µM; in assay [2] (Average of Repeat III P(AKKAA), residue 171-176, read-out: Dissociation constant from NMR cross-peak movement, average), 6.9 µM; in assay [2] (Average of Repeat IV P(AKKAAAKKA), residue 177-186, read-out: Dissociation constant from NMR cross-peak movement, average), 6.2 µM; in assay [2] (Average of Repeat V P(AKKAAAKKV), residue 187-196, read-out: Dissociation constant from NMR cross-peak movement, average) it was 4.6 µM. In addition, the Kd in assay [2] (residue A163, Repeat I, read-out: Dissociation constant from NMR cross-peak movement) is 20.7 µM; in assay [2] (residue A164, Repeat I, read-out: Dissociation constant from NMR cross-peak movement), 22.2 µM; in assay [2] (residue A166, Repeat II, read-out: Dissociation constant from NMR cross-peak movement), 14.4 µM; in assay [2] (residue A169, Repeat II, read-out: Dissociation constant from NMR cross-peak movement), 14.6 µM; in assay [2] (residue A170, Repeat II, read-out: Dissociation constant from NMR cross-peak movement), 8.3 µM; in assay [2] (residue A172, Repeat III, read-out: Dissociation constant from NMR cross-peak movement) it was 10.3 µM. The Kd in assay [2] (residue A175, Repeat III, read-out: Dissociation constant from NMR cross-peak movement) is 8.5 µM; in assay [2] (residue A176, Repeat III, read-out: Dissociation constant from NMR cross-peak movement) it was 5 µM; in assay [2] (residue A178, Repeat IV, read-out: Dissociation constant from NMR cross-peak movement), 4.8 µM; in assay [2] (residue A181, Repeat IV, read-out: Dissociation constant from NMR cross-peak movement) it was 4.8 µM; in assay [2] (residue A182, Repeat IV, read-out: Dissociation constant from NMR cross-peak movement), 4.6 µM; in assay [2] (residue A183, Repeat IV, read-out: Dissociation constant from NMR cross-peak movement), 4.6 µM. For the same molecule, the Kd in assay [2] (residue A186, Repeat IV, read-out: Dissociation constant from NMR cross-peak movement) is 3.1 µM; in assay [2] (residue A188, Repeat V, read-out: Dissociation constant from NMR cross-peak movement), 4.8 µM; in assay [2] (residue A191, Repeat V, read-out: Dissociation constant from NMR cross-peak movement) it was 5.3 µM; in assay [2] (residue A192, Repeat V, read-out: Dissociation constant from NMR cross-peak movement), 4.6 µM; in assay [2] (residue A193, Repeat V, read-out: Dissociation constant from NMR cross-peak movement), 4.8 µM; in assay [2] (residue K161, Repeat I, read-out: Dissociation constant from NMR cross-peak movement), 9.8 µM. Besides, the Kd in assay [2] (residue K162, Repeat I, read-out: Dissociation constant from NMR cross-peak movement) was 45.3 µM; in assay [2] (residue K167, Repeat II, read-out: Dissociation constant from NMR cross-peak movement), 4.2 µM; in assay [2] (residue K168, Repeat II, read-out: Dissociation constant from NMR cross-peak movement), 17.2 µM; in assay [2] (residue K173, Repeat III, read-out: Dissociation constant from NMR cross-peak movement) it was 4.2 µM; in assay [2] (residue K174, Repeat III, read-out: Dissociation constant from NMR cross-peak movement) it was 6.6 µM; in assay [2] (residue K179, Repeat IV, read-out: Dissociation constant from NMR cross-peak movement), 6.6 µM. The Kd in assay [2] (residue K180, Repeat IV, read-out: Dissociation constant from NMR cross-peak movement) is 4.1 µM; in assay [2] (residue K184, Repeat IV, read-out: Dissociation constant from NMR cross-peak movement), 18.3 µM; in assay [2] (residue K185, Repeat IV, read-out: Dissociation constant from NMR cross-peak movement), 4.5 µM; in assay [2] (residue K189, Repeat V, read-out: Dissociation constant from NMR cross-peak movement), 5.9 µM; in assay [2] (residue K190, Repeat V, read-out: Dissociation constant from NMR cross-peak movement), 4.1 µM; in assay [2] (residue K194, Repeat V, read-out: Dissociation constant from NMR cross-peak movement), 4.9 µM. Besides, the Kd was 4.6 µM in assay [2] (residue K195, Repeat V, read-out: Dissociation constant from NMR cross-peak movement) and 2.7 µM in assay [2] (residue V196, Repeat V, read-out: Dissociation constant from NMR cross-peak movement). In assay [2] (protein-to-sugar molar ratio 1:2, all residues, reported previously, ref Huang et al., 2017), the “average Δδresidue (weighted chemical shift deviation) of HBHA110–199” value was 0.019 ppm.
`CC(=O)N[C@H]1[C@@H](O[C@H]2[C@H](O)[C@@H](O)[C@H]3OC[C@@H]2O3)O[C@H](CO)[C@@H](O[C@@H]2O[C@@H](C(=O)O)[C@@H](O[C@H]3O[C@H](CO)[C@@H](O[C@@H]4O[C@@H](C(=O)O)[C@@H](O[C@H]5O[C@H](CO)[C@@H](O[C@@H]6O[C@@H](C(=O)O)[C@@H](O[C@H]7O[C@H](CO)[C@@H](O[C@@H]8O[C@@H](C(=O)O)[C@@H](O[C@H]9O[C@H](CO)[C@@H](O[C@@H]%10O[C@@H](C(=O)O)[C@@H](O[C@H]%11O[C@H](CO)[C@@H](O[C@@H]%12O[C@@H](C(=O)O)[C@@H](O[C@H]%13O[C@H](CO)[C@@H](O[C@@H]%14O[C@@H](C(=O)O)[C@@H](O[C@H]%15O[C@H](CO)[C@@H](O)[C@H](O)[C@H]%15NC(C)=O)[C@H](O)[C@H]%14O)[C@H](O)[C@H]%13NC(C)=O)[C@H](O)[C@H]%12O)[C@H](O)[C@H]%11NC(C)=O)[C@H](O)[C@H]%10O)[C@H](O)[C@H]9NC(C)=O)[C@H](O)[C@H]8O)[C@H](O)[C@H]7NC(C)=O)[C@H](O)[C@H]6O)[C@H](O)[C@H]5NC(C)=O)[C@H](O)[C@H]4O)[C@H](O)[C@H]3NC(C)=O)[C@H](O)[C@H]2O)[C@@H]1O` [compound 20]: the “dissociation constant, KD” value in assay [1] (Tris buffer pH 7.6, 25 °C, two trials, average ± standard deviation) was “no detectable binding; also recorded: no binding detected”. For the same molecule, the “conformational change of full-length HBHA (CD)” value in assay [3] is reported as “did not induce any significant conformational change”.
